Where a SMILES comes first, the peptide text is derived from it.
Experiment: not given
Settings: disclosed by Zeng et al.; cited from earlier work

With `Cc1cccc(C)c1NC(=O)[C@@H](C)NC(=O)[C@@H](N)CC(=O)O` [2,6-dimethyl-aniline amide] as the compound, how does the sweetness potency read?
Its sweetness potency is 500 times the sweetness of sucrose.

Experiment: not given
Settings: value adopted for the reference solution; cited from earlier work

For `COC(=O)[C@H](Cc1ccccc1)NC(=O)[C@@H](N)CC(=O)O` [aspartame] (H-Asp-Phe-OMe), which “sweetness of aspartame (adopted reference value)” value is on record?
The value was 180 times sucrose.

Experiment: Sweetness potency: four tasters compare dilutions of the test compound with a 200 ppm aspartame solution
Type: in vivo
Settings: against 200 ppm aspartame solution; aspartame taken as 180 times sucrose
Method: The sweetness potency was determined by having four tasters compare the sweetness of various dilutions of the test compound with a 200 ppm equivalent solution of aspartame, wherein the sweetness of aspartame was taken to be 180 times sucrose. […]

Which Sweetness does the source give for `CCC(NC(=O)[C@@H](C)NC(=O)[C@@H](N)CC(=O)O)c1ccccc1` (stereo partly drawn) [Example 8, L-aspartyl-D-alanine-N-(R,S)-α-ethylbenzyl amide] here?
The Sweetness was 270 times sucrose.

For `CC(C)[C@@H](NC(=O)[C@@H](N)CC(=O)O)C(=O)N[C@@H](C)c1ccccc1` [Example 5, L-aspartyl-D-valine-N-(S)-α-methylbenzyl amide], which Sweetness is on record?
Its Sweetness is 540 times sucrose.

Which Sweetness does the source give for `C[C@H](NC(=O)[C@H](NC(=O)[C@@H](N)CC(=O)O)c1ccccc1)c1ccccc1` [Example 6, L-aspartyl-D-phenylglycine-N-(S)-α-methylbenzyl amide] here?
Its Sweetness is 270 times sucrose.

With `C[C@@H](NC(=O)[C@@H](N)CC(=O)O)C(=O)NC(c1ccccc1)c1ccccc1` [Example 12, L-aspartyl-D-alanine-N-α-phenyl benzyl amide] as the compound, how does the Sweetness read?
The Sweetness was 180 times sucrose.

Which Sweetness does the source give for `C[C@@H](NC(=O)[C@@H](N)CC(=O)O)C(=O)NC(c1ccccc1)C(C)(C)C` (stereo partly drawn) [Example 10, L-aspartyl-D-alanine-N-(R,S)-α-t-butylbenzyl amide] here?
The Sweetness was 150 times sucrose.

With `CC[C@H](NC(=O)[C@H](NC(=O)[C@@H](N)CC(=O)O)C(C)C)c1ccccc1` [Example 15, L-aspartyl-D-valine-N-(S)-α-ethylbenzyl amide] as the compound, how does the Sweetness read?
Its Sweetness is 1500 times sucrose.

Which Sweetness does the source give for `CCC[C@@H](NC(=O)[C@@H](N)CC(=O)O)C(=O)N[C@@H](C)c1ccccc1` [Example 4, L-aspartyl-D-α-aminopentanoic-acid-N-(S)-α-methylbenzyl amide] here?
The Sweetness was 90 times sucrose.

For `CCCC(NC(=O)[C@@H](C)NC(=O)[C@@H](N)CC(=O)O)c1ccccc1` (stereo partly drawn) [Example 11, L-aspartyl-D-alanine-N-(R,S)-α-n-propylbenzyl amide], which Sweetness is on record?
Its Sweetness is 90 times sucrose.

Which Sweetness does the source give for `C[C@H](NC(=O)[C@@H](C)NC(=O)[C@@H](N)CC(=O)O)c1ccccc1` [Example 2, L-aspartyl-D-alanine-N-(S)-α-methyl-benzylamide] here?
The Sweetness was 180 times sucrose.

For `C[C@@H](NC(=O)[C@@H](N)CC(=O)O)C(=O)NC(c1ccccc1)C1CC1` (stereo partly drawn) [Example 13, L-aspartyl-D-alanine-N-α-cyclopropyl benzyl amide], which Sweetness is on record?
Its Sweetness is 1,080 times sucrose.

For `CC[C@@H](NC(=O)[C@@H](N)CC(=O)O)C(=O)N[C@@H](C)c1ccccc1` [Example 3, L-aspartyl-D-α-aminobutyric-acid N-(S)-α-methylbenzyl amide], which Sweetness is on record?
Its Sweetness is 360 times sucrose.

For `C[C@@H](NC(=O)[C@@H](N)CC(=O)O)C(=O)N[C@H](C)c1ccccc1` [Example 7, L-aspartyl-D-alanine-N-(R)-α-methylbenzyl amide], which Sweetness is on record?
Its Sweetness is “less than 10 times sucrose”.

For `CC[C@H](NC(=O)[C@@H](CC)NC(=O)[C@@H](N)CC(=O)O)c1ccccc1` [Example 14, L-aspartyl-D-α-aminobutyric acid-N-(S)-α-ethylbenzyl amide], which Sweetness is on record?
The Sweetness was 2500 x Sucrose.

With `CC(C)C(NC(=O)[C@@H](C)NC(=O)[C@@H](N)CC(=O)O)c1ccccc1` (stereo partly drawn) [Example 9, L-aspartyl-D-alanine-N-(R,S)-α-isopropylbenzyl amide] as the compound, how does the Sweetness read?
The Sweetness was 180 times sucrose.

Same assay, conditions: against 200 ppm aspartame solution; aspartame taken as 180 times sucrose; listed as L-aspartyl-D-α-aminobutyric-acid-(S)-N-α-alkylbenzyl amide

With `CC[C@H](NC(=O)[C@@H](CC)NC(=O)[C@@H](N)CC(=O)O)c1ccccc1` [Example 14, L-aspartyl-D-α-aminobutyric acid-N-(S)-α-ethylbenzyl amide] as the compound, how does the Sweetness read?
The Sweetness was 2500 times sucrose.

Experiment: not given
Settings: reported in U.S. Patent No. 4,411,925; cited from earlier work

For `C[C@@H](NC(=O)[C@@H](N)CC(=O)O)C(=O)NC(C1CC1)C1CC1` [R = methyl], which “sweetness potency (SP)” value is on record?
The value was 1200 times sucrose.

Which “sweetness potency (SP)” value does the source give for `CC[C@@H](NC(=O)[C@@H](N)CC(=O)O)C(=O)NC(C1CC1)C1CC1` [R = ethyl] here?
The value was 500 times sucrose.

Which “sweetness potency (SP)” value does the source give for `CC(C)[C@@H](NC(=O)[C@@H](N)CC(=O)O)C(=O)NC(C1CC1)C1CC1` [R = isopropyl] here?
Its value is 110 times sucrose.

For `C[C@@H](NC(=O)[C@@H](N)CC(=O)O)C(=O)NC(C1CC1)C(C)(C)C` (mixture of isomers) [L-aspartyl-D-alanine amide of (+/-) t-butyl-cyclopropyl methylamine], which “sweetness potency (SP)” value is on record?
Its value is 1200 times sucrose.

— patent EP0779296A2, “D-alpha-aminoalkanoyl-(S)-N-alpha-alkylbenzyl amides useful as intermediates for artificial sweeteners” (THE COCA-COLA COMPANY, priority 1992, dated 1994)
